The values below come from the NIST ThermoML archive (doi:10.1021/je0600092).

Numbers after ± are expanded uncertainties.

For the data set the following is noted: 101.33 kPa, Liquid; for speed of sound: Light diffraction method; for thermal diffusivity: Optical interferometry.

As usually defined, the speed of sound is how fast a sound wave travels through the sample. As to `CCCCCCCCn1cc[n+](C)c1.O=S(=O)([N-]S(=O)(=O)C(F)(F)F)C(F)(F)F`, for the setting “293.15 K”, the speed of sound worked out at 1232 ± 11 m/s and the thermal diffusivity stood at 6.1e-08 ± 5e-09 m2/s.
The matching figures for `CCCCn1cc[n+](C)c1.F[P-](F)(F)(F)(F)F` [1-butyl-3-methylimidazolium hexafluorophosphate]: 1441 ± 11 m/s and 7.5e-08 ± 5e-09 m2/s.
For `CCCCn1cc[n+](C)c1.F[B-](F)(F)F` [1-butyl-3-methylimidazolium tetrafluoroborate], in that order: 1564 ± 10 m/s and 8.6e-08 ± 4e-09 m2/s.
The matching figures for `CCCC[n+]1ccn(C)c1.O=S(=O)([N-]S(=O)(=O)C(F)(F)F)C(F)(F)F`: 1227 ± 13 m/s and 6e-08 ± 3e-09 m2/s.
For the compound `CCCCCn1cc[n+](C)c1.O=S(=O)([N-]S(=O)(=O)C(F)(F)F)C(F)(F)F`, for the setting “298.15 K”, the speed of sound turned out to be 1227 ± 7 m/s and the thermal diffusivity stood at 5.8e-08 ± 3e-09 m2/s.
Regarding `CCCCCC[n+]1ccn(C)c1.O=S(=O)([N-]S(=O)(=O)C(F)(F)F)C(F)(F)F`, for the setting “293.15 K”, the speed of sound was 1232 ± 11 m/s and the thermal diffusivity worked out at 6.06e-08 ± 3.2e-09 m2/s.
Take `CCn1cc[n+](C)c1.O=S(=O)([N-]S(=O)(=O)C(F)(F)F)C(F)(F)F`: for the setting “293.15 K”, the speed of sound turned out to be 1240 ± 10 m/s and the thermal diffusivity was determined as 6.01e-08 ± 2.9e-09 m2/s.
